In brackets after ≈: the same amount, converted by molar mass.
Key:
[1] = tested on: erythrocytes; format: cell-based, human
Experimental: FIG. 2 graphically illustrates the hemolytic effects of two hydroxyalkyl substituted cyclodextrins, 2-hydroxyethyl-β-cyclodextrin (β-CD-4-Et) and 2-hydroxypropyl-β-cyclodextrin (β-CD-4Pr) in comparison to the polyanionically substituted cyclodextrin β-cyclodextrin-tetradecasulfate sodium (β-CD-14s) on fresh human blood to which about 0.47% sodium citrate was added.
The first sample contained erythrocytes and isotonic saline. This first sample served as a zero blank.

[2] = solubility limit; format: physicochemical; settings: 20° C.
[3] = tested on: erythrocytes; settings: 1.0 mM β-cyclodextrin, simultaneous use (Uekama 1981); cited from earlier work
[4] = tested on: erythrocytes; settings: cited from earlier work; for concentration above/at which hemolysis is induced: background statement; for hemolytic activity (in words): known in the art / literature
[5] = tested on: erythrocytes; experiment: inhibition of hemolysis induced by hemolytic agents (CPZ, CD, Pr-OH-CD, clay); settings: for Hemolysis: 15 min
Experimental: Unless explicitly stated otherwise, hemolytic activity was measured by the procedure described by I. Jodal et al., Proceedings of the Fourth International Symposium on Cyclodextrins, O. Huber and J. Szejtli, Eds., 421-425, Kluwer Academic Publishers, Boston (1988), which is incorporated herein by reference.
For each of the examples which follow, sodium citrate was added about (to about 0.47%) to fresh human blood collected from healthy laboratory personnel. After centrifugation (10 min., 400×G) to separate the erythrocytes from other blood components, the supernatant erythrocyte fraction was recentrifuged and washed twice with isotonic phosphate buffer. The erythrocytes were diluted with that buffer to a 10% hematocrit value to obtain an erythrocyte suspension. Test material and erythrocytes were mixed as follows: about 3.6, 1.8, and 0.9 ml of a test material solution was mixed with about 0.4, 0.2 and 0.1 ml, respectively, of erythrocyte suspension and then incubated for about 15 minutes each at about 37° C., followed by two centrifugations for two minutes each at about 4000×G The resulting supernatants were measured for absorbance at 543 nm using a Gilford spectrophotometer. The percent of hemolysis was determined by reference to two control samples. The first sample contained erythrocytes and isotonic saline. This first sample served as a zero blank. The second sample was identical to the first but had been sonicated to provide a value for 100% hemolysis.

[6] = in vitro; format: cell-based, human; settings: human, erythrocytes
[7] = tested on: erythrocytes; experiment: in vitro; format: cell-based, human

OC[C@H]1O[C@@H]2O[C@H]3[C@H](O)[C@@H](O)[C@@H](O[C@H]4[C@H](O)[C@@H](O)[C@@H](O[C@H]5[C@H](O)[C@@H](O)[C@@H](O[C@H]6[C@H](O)[C@@H](O)[C@@H](O[C@H]7[C@H](O)[C@@H](O)[C@@H](O[C@H]8[C@H](O)[C@@H](O)[C@@H](O[C@H]1[C@H](O)[C@H]2O)O[C@@H]8CO)O[C@@H]7CO)O[C@@H]6CO)O[C@@H]5CO)O[C@@H]4CO)O[C@@H]3CO [β-CD, β-cyclodextrin]
onset of hemolysis (concentration inducing hemolysis) ([1]; human): about 6 mg/ml | solubility [2]: 13 to 18 mg/mL (≈ 11.5 to 15.9 mM) | inhibition of hemolytic action of chlorpromazine [3]: inhibits the hemolytic action | concentration above/at which hemolysis is induced [4]: 2000 to 3000 µM | Hemolysis ([5]; CPZ 0.5 mg/ml (1.5 mM) + CD 5.0 mg/ml (4.0 mM), molar ratio CD/CPZ 2.7 (Example 20)): 6.5 | Hemolysis ([5]; CPZ 0.75 mg/ml (2.25 mM) + CD 7.5 mg/ml (6.0 mM), molar ratio CD/CPZ 2.7 (Example 21)): 21 | Hemolysis ([5]; CPZ 1.0 mg/ml (3.0 mM) + CD 10 mg/ml (8.0 mM), molar ratio CD/CPZ 2.7 (Example 22)): 80 | protection from hemolysis by CPZ (in words) ([5]; Example 20: CPZ 0.5 mg/ml + CD 5.0 mg/ml): considerable protection | protection from hemolysis by CPZ (in words) ([5]; Examples 21 and 22: CPZ 0.75-1.0 mg/ml + CD 7.5-10 mg/ml): protection is lost

2-hydroxypropyl-β-cyclodextrin [β-CD-4Pr]
hemolytic effect (FIG. 2) [1]: induced hemolysis at low concentrations

2-hydroxyethyl-β-cyclodextrin [β-CD-4-Et]
hemolytic effect (FIG. 2) [1]: induced hemolysis at low concentrations

β-cyclodextrin-tetradecasulfate sodium [β-CD-14s]
hemolytic effect (FIG. 2) [1]: no undesirable hemolytic properties | reduction of the level of hemolysis ([5]; CD about 15 mg/ml, β-CD-14s 50 mg/ml): about 41% | fold reduction of hemolysis ([5]; CD about 15 mg/ml, β-CD-14s 150 mg/ml): about 30 fold | hemolytic activity of the composition with CPZ (in words) ([5]; Example 23: CPZ 1.0 mg/ml + 50 mg/ml CDS): substantially reduced hemolytic activity | hemolytic effect (in words) ([5]; about 70 mg/ml CDS, about 2.0 mg/ml CPZ): negligible hemolytic effect | fold improvement, that is, reduction in hemolysis ([5]; hydroxypropyl cyclodextrin 75 mg/ml, β-CD-14s 100 mg/ml): at least 20 fold

CN(C)CCCN1c2ccccc2Sc2ccc(Cl)cc21 [CPZ, chloropromazine]
hemolysis at 0.25 h ([6]; 0.5 mg/ml of CPZ): ~100% | hemolysis at 0.25 h ([6]; CPZ 0.15 mg/ml (Example 1)): 4.9% | hemolysis at 0.25 h ([6]; CPZ 0.25 mg/ml (Example 2)): 7% | hemolysis at 0.25 h ([6]; CPZ 0.30 mg/ml (Example 3)): 88% | hemolysis at 0.25 h ([6]; CPZ 0.40 mg/ml (Example 4)): 96% | hemolysis (in words) ([7]; concentrations approaching 0.5 mg/ml of CPZ): complete hemolysis | hemolysis (in words) ([7]; without CDS, about one-fifth of 2.0 mg/ml CPZ (Example 4)): substantially complete hemolysis | concentration above/at which hemolysis is induced [4]: > 500 µM | hemolytic activity (in words) [4]: hemolysis inducing agents

CC(C(=O)O)c1ccc(-c2ccccc2)c(F)c1 (stereo not shown) [flurbiprofen]
hemolytic activity (in words) [4]: hemolysis inducing agents

C=C[C@]1(C)C[C@@H](OC(=O)CSCCN(CC)CC)[C@]2(C)[C@H](C)CC[C@]3(CCC(=O)[C@H]32)[C@@H](C)[C@@H]1O [tiamulin]
hemolytic activity (in words) [4]: hemolysis inducing agents

Reference: patent US5776914A, “Prevention of hemolysis” (The Trustees of the University of Pennsylvania, priority 1994, dated 1998)
